Laboratory results from patent US20250109127A1, “METHODS OF USE OF PHENOXYPROPYLAMINE COMPOUNDS TO TREAT DEPRESSION” (Minerva Neurosciences, Inc., priority 2013, published 2025).
“Also recorded” adds a separate entry of the source. One block for each molecule: values may come before it.

Experiments:
[1] = Pharmacokinetic study, plasma concentration on day 1 and day 14; assay type: in vivo; conditions: day 1 and day 14 after dosing with SON-117
Description: were examined in pharmacokinetic studies.
FIG. 34 illustrates the plasma concentration of SON-117 as a function of time on day 1 after dosing with SON-117. FIG. 35 illustrates the plasma concentration of SON-117 as a function of time on day 14 after dosing with SON˜117.
FIG. 36 illustrates the plasma concentration of the M1 metabolite of SON-117 as a function of time on day 1 after dosing with SON-117. FIG. 37 illustrates the plasma concentration of the M1 metabolite of SON-117 as a function of time on day 14 after dosing with SON-117.

[2] = tested on: dopamine release in the rat prefrontal cortex; experiment: Microdialysis: dopamine release in prefrontal cortex after I.P. administration; assay type: in vivo; conditions: 3 mg/kg IP, n = 8
Description: The aim of the study was to evaluate, using microdialysis, the effects of an intraperitoneal (I.P.) administration in rats of three different doses of SON-117 on dopamine and its metabolites, serotonin and its metabolite (5-HIAA), and norepinephrine levels in prefrontal cortex.
Thirty-two adult male Wistar rats were used for the whole study (4 groups of eight animals planned for the study, Table 1).
Surgery was performed on rats weighing about 300 g at the beginning of the experiments. Rats were anaesthetized with Ketamine (50 mg/kg) & Xylazine (15 mg/kg) by intramuscular administration. The animals were placed in a stereotaxic apparatus in the flat-skull position at a constant setting of −3.3 mm between ear bars and the incisor bar. The animals were treated with a local anesthesic (xylocaine 1%, Astra Zeneca) and an analgesic (Temgesic, from Schering Plough, 0.05 mg/kg, s.c.). A rostrocaudal midline incision was made with a lancet to expose the dorsal skull surface. The “stereotaxic zero” was defined by the Bregma in accordance with Paxinos and Watson's atlas (1986). A hole was drilled in the skull with a drill and the meninges were pierced with a sterile needle to implant a CMA12 guide cannula which later received the dialysis probe.
Coordinates used for implanting guide cannula in prefrontal cortex from Bregma were anteroposterior 3.7 mm, mediolateral 0.8 mm, and dorsoventral −2 mm (top of the probe was at −5 mm). The guide cannula was fixed to the skull with two stainless steel screws (1.88 mm outside diameter) anchored. An application of dental cement was added. A plastic collar allowed each animal to be tethered to a Swivel assembly of the CMA 120 awake animal system. Following surgery, rats were kept in individual cages and allowed to recover for a minimum of 3-5 days before the experimentation. The rats were handled and put in plastic bowl for 10 min at least every day to habituate the animals to their new environment for the dialysis. An I.P. administration with saline was also performed every day.
Dialysis probes (CMA12/3 mm, membrane, 20 kD cut-off, Carnegie Medicine, Stockholm, Sweden), were carefully washed before inserting into the guide cannula. The wash was performed with the artificial cerebrospinal fluid (aCSF) medium (NaCl 147 mM, KCl 2.7 mM, CaCl2 1.2 mM, MgCl2 0.85 mM) at room temperature. The dialysis system was then equilibrated at 20° C. at a perfusion rate of 1 μl/min with a Carnegie pump (CMA100). All catheters (FEP tubing, internal volume of 1.2 μl/10 cm, and tubing adaptors) used for microdialysis were treated in the same conditions.
The probes duly prepared were inserted into the guide cannula and the CMA120 Swivel assembly secured to the animal using a plastic collar. Flow through the dialysis probe with aCSF was maintained at a rate of 1 μl/min during the whole experimentation. The first four fractions (corresponding to 2 hours) were discarded to avoid the effects of parenchymal disturbance and to ensure that an approximate steady-state level was reached. Fractions were then collected over a period of 8.5 h during which time the animals remained quiet. The dialysates were automatically collected with an autosampler (microfraction collector CMA 140, Carnegie Medicin) and stored at −80° C. until analysis. […] Perfusion was then maintained for 7 hours with aCSF. The dialysates (30 μl) were collected into 300 μl vials, transferred into dry ice and then kept frozen (−80° C.) until analysis. Frozen samples were shipped to a partner for analysis. At the end of the microdialysis study, a PBS with colored ink was perfused through the probe in order to visualize the dialyzed area.
Catecholamine assay: Concentrations of dopamine, DOPAC, HVA, 5-HIAA, 5-HT, and norepinephrin were determined for each sample by HPLC coupled with electrochemical detection.

[3] = tested on: sleep EEG parameters; experiment: Polysomnography / sleep EEG study; assay type: in vivo, human; conditions: escitalopram 20 mg
Description: In this study, certain pharmacodynamic sleep parameters predictive of antidepressant activity were monitored and measured. […] Three doses of SON-117 were tested (1 mg, 3 mg, 7.5 mg). […] In an embodiment, SON-117 affected sleep. In an embodiment, SON-117 affected REM sleep.
[…] subjects were tested in a sleep study, where 23 subjects were dosed with SON-117 in amounts of 1 mg up to 7.5 mg; 12 were given a placebo; and 8 were given escitalopram at a dose of 20 mg. Sleep was recorded in individual sound-attenuated and comfortably furnished bedrooms. During bedtime hours subjects were recumbent and the lights are turned off. The polysomnographic montage consisted of 4 EEG channels (C3A2, O1A2, C4A1, and O2A1), bilateral electro-oculograms, and 2 submental electromyograms. The different sleep parameters were derived with the Hypnos software from the visual scoring of the recordings at 30 sec epochs according to Rechtschaffen and Kales (1968) rules. Sleep continuity parameters comprise both sleep initiation and sleep maintenance variables. Sleep architecture parameters, which include REM sleep parameters, comprise stages distribution variables documenting duration and proportion of the different sleep stages and sleep profile variables that provide an outline on the time course of the different sleep stages during the recording period. All night sleep EEG spectral analysis was carried out on the C3-A2 derivation by means a fast Fourrier transform algorithm. Epoch length was 2 seconds at a sampling rate of 256 Hz and truncating error was reduced by applying a Hanning window. Sleep visual scores of each 30-second epoch was synchronised with power density values in order to allow the analysis of power density within in specific period of time such as REM and non REM sleep.

[4] = tested on: animals exposed to chronic mild stress; experiment: Chronic mild stress (CMS) model, consumption of 1% sucrose solution; assay type: in vivo, rat
Description: Male Wistar rats (Charles River, Germany) were brought into the laboratory one month before the start of the experiment. Except as described below, the animals were singly housed with food and water freely available, and were maintained on a 12-h light/dark cycle, in a constant temperature (22±2° C.) and humidity (50±5%) conditions.
After a period of 2 weeks of adaptation to laboratory and housing conditions, the animals were first trained to consume a 1% sucrose solution; training consisted of nine 1 h baseline tests in which sucrose was presented, in the home cage, following 14 h food and water deprivation; the sucrose intake was measured by weighing pre-weighed bottles containing the sucrose solution, at the end of the test. Subsequently, the sucrose consumption was monitored, under similar conditions, at weekly intervals throughout the whole experiment.
On the basis of their sucrose intakes in the final baseline test, the animals were divided into two matched groups. One group of animals was subjected to the chronic mild stress procedure for a period of 8 consecutive weeks. Each week of stress regime consisted of: two periods of food or water deprivation, two periods of 45 degree cage tilt, two periods of intermittent illumination (lights on and off every 2 h), two periods of soiled cage (250 ml water in sawdust bedding), one period of paired housing, two periods of low intensity stroboscopic illumination (150 flashes/min), and three periods of no stress. All stressors were 10-14 h of duration and were applied individually and continuously, day and night. Control animals were housed in separate rooms and had no contact with the stressed animals. They were deprived of food and water for the 14 h preceding each sucrose test, but otherwise food and water were freely available in the home cage.
On the basis of their sucrose intakes following initial 2 weeks of stress, both the stressed and the control groups were each divided further into matched subgroups (n=8), and for subsequent five weeks they received once daily intraperitoneal injections of vehicle (0.5% hydroxypropylmethylcellulose, 1 ml/kg), SON-117 (0.001, 0.01, 0.1 and 1 mg/kg) or imipramine (10 mg/kg) as the reference treatment. The drugs were administered at approx. 10:00 AM and the weekly sucrose tests were carried out 24 h following the last drug injections. After five weeks all treatments were terminated and one additional sucrose test was carried out after one week of withdrawal. Stress was continued throughout the period of treatment and withdrawal.
(§1) After completion of the administration and withdrawal period, all control and stressed animals were placed in an open field (100 cm in diameter, 35 cm high) and allowed to explore two identical objects (cylinder-shaped object with walls painted white, 7 cm in diameter, 11 cm high) for the time required to complete 15 s of exploration of either object. For the retention trial conducted one hour later, one of the objects presented previously was replaced with a novel object (prism-shaped object with walls painted black, 5 cm wide, 14 cm high). Rats were returned to the open field for 5 min and the duration of exploration (i.e. sitting in close proximity to the objects, sniffing or touching them) of each object was measured separately by a trained observer. The data were calculated according to the following formula: [time of novel object exploration divided by time of novel plus familiar object exploration multiplied by 100]. The CMS and NOR data were analyzed by multiple analyses of variance with three between-subjects factors (stress/control, drug treatments and intakes in successive sucrose tests). The Fisher's LSD test was used for the post-hoc comparisons of means.

[5] = tested on: animals exposed to chronic mild stress; experiment: Novel object recognition test after CMS and treatment withdrawal; assay type: in vivo, rat; conditions: imipramine 10 mg/kg IP, one week after withdrawal
Description: as §1

AUC, dependence on dose [1]: dose-proportional increase
Cmax, dependence on dose [1]: dose-proportional increase
SMILES: OCc1nnc(-c2cc3c(OC[C@@H](O)CN4CCC(c5ccc(Cl)c(Cl)c5)CC4)cccc3o2)o1 [M1]

SMILES: Cc1nnc(-c2cc3c(OC[C@@H](O)CN4CCC(c5ccc(Cl)c(Cl)c5)CC4)cccc3o2)o1.Cl [SON117]
Dopamine release, MEAN ([2]; T0-T30 min): 129.47 % of respective basal
Dopamine release, MEAN ([2]; T30-T1 h): 110.54 % of respective basal
Dopamine release, MEAN ([2]; T1 h 30-T2 h): 134.25 % of respective basal
Dopamine release, MEAN ([2]; T1 h-T1 h 30): 169.31 % of respective basal
Dopamine release, MEAN ([2]; T2 h 30-T3 h): 115.17 % of respective basal
Dopamine release, MEAN ([2]; T2 h-T2 h 30): 106.18 % of respective basal
Dopamine release, MEAN ([2]; T3 h 30-T4 h): 113.02 % of respective basal
Dopamine release, MEAN ([2]; T3 h-T3 h 30): 117.50 % of respective basal
Dopamine release, MEAN ([2]; T4 h 30-T5 h): 111.42 % of respective basal
Dopamine release, MEAN ([2]; T4 h-T4 h 30): 126.77 % of respective basal
Dopamine release, MEAN ([2]; T5 h 30-T6 h): 148.15 % of respective basal
Dopamine release, MEAN ([2]; T5 h-T5 h 30): 123.35 % of respective basal
Dopamine release, MEAN ([2]; T6 h 30-T7 h): 167.43 % of respective basal
Dopamine release, MEAN ([2]; T6 h-T6 h 30): 131.63 % of respective basal
Dopamine release, MEAN ([2]; T-30 min-T0 (before administration)): 96.15 % of respective basal
Dopamine release, MEAN ([2]; T-1 h 30-T-1 h (before administration)): 104.41 % of respective basal
Dopamine release, MEAN ([2]; T-1 h-T-30 min (before administration)): 99.29 % of respective basal

SMILES: CN(C)CCC[C@@]1(c2ccc(F)cc2)OCc2cc(C#N)ccc21 [escitalopram, reference compound]
pharmacodynamic sleep parameters, positive comparator [3]: behaved as expected

SMILES: CN(C)CCCN1c2ccccc2CCc2ccccc21 [imipramine, reference compound]
treatment time until increase in sucrose intake in stressed animals reached statistical significance vs Week 0 ([4]; imipramine 10 mg/kg IP): four
effect on sucrose intake one week after cessation of treatment ([4]; imipramine 10 mg/kg IP, stressed animals): maintained
sucrose intake in control animals, compared to vehicle ([4]; once daily IP for five weeks, imipramine 10 mg/kg, SON-117 all doses (0.001, 0.01, 0.1 and 1 mg/kg)): no significant effect
sucrose consumption in stressed animals, compared to vehicle ([4]; once daily IP for five weeks, imipramine 10 mg/kg, SON-117 all four doses (0.001-1 mg/kg)): gradually increased; also recorded: fully reversed
recognition index in control animals [5]: decreased
effect against the CMS-induced deficit in recognition index ([5]; stressed animals): ineffective
